Some test systems named below: KM20L2 colon; SK-MEL-2 melanoma; HOP-92 NSCLC; OVCAR-3 ovarian; 786-0 renal; XF 498 CNS; DMS 114 small cell lung; A549 NSCLC; K-562 leukemia; T-47D breast.
Holding throughout (experiment): DTP human tumour cell line panel, 48 h

Data on ten molecules can be found in PubChem BioAssay (NCI).

Where “and” joins values, the source holds several entries; their conditions need not be identical. Identical values can stand only once.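 Interpolation was linear, between the two tested concentrations surrounding the appropriate level; five concentrations were tested over 48 hours in 96-well plates. GI50 is the concentration that inhibits growth by half. TGI: concentration producing complete growth inhibition.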

For `O=C(CCc1nc(=S)[nH][nH]1)Nc1cc(Cl)c(Cl)cc1Cl`, the TGI with KM20L2 colon, with SK-MEL-2 melanoma, in the test on HOP-92 NSCLC, with OVCAR-3 ovarian, in the test with 786-0 renal and with XF 498 CNS was over 100 µM throughout. In addition, the TGI in the test on DMS 114 small cell lung, in the test with A549 NSCLC and in the test with K-562 leukemia was over 100 µM throughout.

With `O=C(O)CCNCCCNCCC(=O)O`, the TGI in the test on KM20L2 colon, with SK-MEL-2 melanoma, in the test with HOP-92 NSCLC, in the test on OVCAR-3 ovarian, with 786-0 renal and in the test on XF 498 CNS was over 100 µM in each case. Further, the TGI with DMS 114 small cell lung, in the test with A549 NSCLC and in the test with K-562 leukemia was over 100 µM each time.

On to `O=C(O)CCC(NC(=O)c1ccc(Nc2nc3ccccc3nc2-c2cccs2)cc1)C(=O)O` (configuration not stated), for which the TGI with KM20L2 colon, in the test with SK-MEL-2 melanoma, with HOP-92 NSCLC, with OVCAR-3 ovarian, with 786-0 renal and in the test on XF 498 CNS was over 100 µM in each case. For the same molecule, the TGI with DMS 114 small cell lung, in the test on A549 NSCLC and in the test on K-562 leukemia was over 100 µM each time.

For `CCOC(=O)CCC1(C(=O)OCC)CCCCC1=O` (configuration not stated), the total growth inhibition concentration (TGI) in the test on KM20L2 colon, with SK-MEL-2 melanoma, with HOP-92 NSCLC, in the test with OVCAR-3 ovarian, in the test with 786-0 renal and in the test with XF 498 CNS was over 100 µM throughout. For the same molecule, the TGI in the test on DMS 114 small cell lung, with A549 NSCLC and in the test with K-562 leukemia was over 100 µM in each case.

As for `CN(C)N=Nc1ccc(C(N)=O)cc1`, the TGI with KM20L2 colon, with SK-MEL-2 melanoma, in the test on HOP-92 NSCLC, with OVCAR-3 ovarian, with 786-0 renal and in the test on XF 498 CNS was over 100 µM in each case. Further, the TGI in the test on DMS 114 small cell lung, in the test on A549 NSCLC and in the test with K-562 leukemia was over 100 µM throughout.

Consider `CNS(=O)(=O)NNS(=O)(=O)c1ccccc1`, for which the TGI in the test with KM20L2 colon, in the test on SK-MEL-2 melanoma, in the test on HOP-92 NSCLC, in the test on OVCAR-3 ovarian, in the test on 786-0 renal and in the test with XF 498 CNS was over 100 µM throughout. Besides, the TGI with DMS 114 small cell lung, with A549 NSCLC and in the test on K-562 leukemia was over 100 µM each time.

Turning to `CCn1c(C)nn2c(=O)c3ccccc3nc2c1=O`, the TGI in the test on KM20L2 colon, with SK-MEL-2 melanoma, in the test with HOP-92 NSCLC, with OVCAR-3 ovarian, with 786-0 renal and in the test on XF 498 CNS was over 100 µM in each case. In addition, the TGI with DMS 114 small cell lung, in the test on A549 NSCLC and with K-562 leukemia was over 100 µM in each case.

With `O=C(Nc1ccccc1)c1c(O)[nH]c(=S)[nH]c1=O`, the GI50 is 87.2 µM in the test on KM20L2 colon; 61.6 µM in the test with SK-MEL-2 melanoma; 10.9 µM with OVCAR-3 ovarian; 8.86 µM and 61.7 µM with XF 498 CNS; 36.7 µM with A549 NSCLC; 85.3 µM in the test on K-562 leukemia. Moreover, the TGI is 125 µM and > 250 µM in the test on KM20L2 colon; 101 µM and 179 µM in the test with SK-MEL-2 melanoma; 45.1 µM in the test on HOP-92 NSCLC; 74.8 µM and 71.3 µM in the test on OVCAR-3 ovarian; 92.1 µM with 786-0 renal; 19.5 µM and 155 µM in the test on XF 498 CNS. Further, the TGI was 105 µM in the test on T-47D breast; 69 µM with DMS 114 small cell lung; 82.6 µM and 147 µM in the test on A549 NSCLC; 114 µM and > 250 µM in the test on K-562 leukemia.

`COC(=O)c1ccccc1NC(=O)C(=O)Cc1nc2c3c(ccc2[nH]c1=O)C(=O)c1ccccc1C3=O`: the TGI with KM20L2 colon was over 100 µM; in the test on SK-MEL-2 melanoma, over 100 µM; with HOP-92 NSCLC it was 92.9 µM; in the test on OVCAR-3 ovarian, over 100 µM; in the test on 786-0 renal, 74.2 µM; in the test with XF 498 CNS, 91.7 µM. The TGI with DMS 114 small cell lung was over 100 µM; in the test on A549 NSCLC it was 62.1 µM; with K-562 leukemia, over 100 µM.

As to `NC1=NCCC1(c1ccccc1)c1ccccn1` (configuration not stated), the TGI in the test with KM20L2 colon, in the test with SK-MEL-2 melanoma, with HOP-92 NSCLC, with OVCAR-3 ovarian, with 786-0 renal and in the test with XF 498 CNS was over 100 µM in each case. Also, the TGI with DMS 114 small cell lung, in the test with A549 NSCLC and in the test on K-562 leukemia was over 100 µM in each case.

The term TGI denotes the concentration giving total growth inhibition. A low value points to greater sensitivity of the cells. Broadly, the GI50 is the concentration giving 50% growth inhibition.
